Here are results for two compounds from US20080233080A1, “Inulins, Levans, Fructans And Other Smaller-Than-Cellulose Termite Feeding Attractants, And Termite” (priority 2004, published 2008).

Data set [1] concerns Reticulitermes spp. Kind of data set: Diet consumption by groups of termites in no-choice and choice bioassay arenas. It counts as in vivo. The method, then:
Subterranean Termite Collection. Five wild populations of Reticulitermes spp. were collected from fallen wood in forested areas of Fairfax County (N38° 43.29′ and W77° 30.93′), Montgomery County (N37° 12.46′ and W80° 24.47′), Rockbridge County (N37° 48.00′ and W 79° 25.00′), and Roanoke County (N37° 19.53′ and W79° 58.53′), Virginia. Termites were harvested by placing the infested wood into large storage bins (70 L; Sterlite®; Sterlite Corporation, Townsend, Mass.) on top of damp, recycled paper towels (Acclaim®; Fort James Corporation, Deerfield, Ill.). As the wood dried out the termites moved into the moist paper towels. The infested paper towels were then transferred to plastic storage containers (11.3 L; Rubbermaid, Wooster, Ohio) containing vermiculite (500 g; moistened 150% by weight (Lenz M., T. L. Amburgey, D. Zi-Rong, H. Kuhne, J. K. Mauldin, A. F. Preston, and M. Westcott, 1987, Interlaboratory studies on termite-wood decay fungi associations: I. Determination of maintenance conditions for several species of termites (Isoptera: Mastotermitidae, Termopsidae, Rhinotermitidae), Sociobiology, 13:1-56; Cherokee Vermiculite Horticultural Fine Cherokee Products, Jefferson City, Tenn.). Subterannean termite containers were stored in complete darkness (˜21° C. and 97% RH) until needed for testing. Subterranean termites were tested within one month after being collected from the field.
Termite Diet Preparation. Recycled brown paper toweling (Acclaim®) was cut into squares (35×35 mm) and used as a diet substrate. The diet substrates were placed into glass Pyrex Petri dishes (100×20 mm; Corning Glass Works, Corning, N.Y.) and dried overnight in a single wall, gravity convection, laboratory oven (60° C.; Blue M SW-17TA; Blue M Electric Company; Blue Island, Ill.). After 24 hours, each diet substrate was taken out of the oven, numbered in the corner with a pencil and weighed on a balance (Mettler AE163; Lab Tech, Inc.) to the nearest 0.1 mg. After weighing, certain diets were treated with radiochemicals. Because hexaflumuron cannot be stored at temperatures greater than 50° C., radioisotopes were only applied after the diets were oven dried. The weight of the isotopes on the diet after air drying was determined to be negligible.
Control Diets. Control diets were treated with the visual marker only. The visual marker was formulated by dissolving Nile Blue-A in acetone and applying a 150 μl aliquot of dye solution to each diet substrate. The final Nile Blue-A concentration on the diet was 0.1%.
^14C-hexaflumuron Diets. A stock solution of technical grade hexaflumuron, ^14C-hexaflumuron (0.5% total hexaflumuron concentration) and 0.1% Nile Blue-A was formulated in acetone. An aliquot (150 μl) of the solution was applied to each diet substrate so that each diet contained 0.27 μCi of the ^14C-hexaflumuron.
^3H-inulin Diets. A stock solution of the ^3H-inulin and 0.1% Nile Blue-A (1.95 mg) was formulated in acetone. An aliquot (150 μl) of the solution was applied to each diet substrate so that each diet contained […] of the ^3H-inulin. ^3H has a lower energy spectrum than ^14C, so ˜8× more ^3H-inulin was added to the diets than ^14C-hexaflumuron to facilitate radioisotope quantification process after termite consumption.
Bioassay Arenas: Consumption bioassays were performed in choice and non-choice bioassay arenas. Arena tests were used to evaluate termite consumption of hexaflumuron treated bait alone and in the presence of a competing food source.
No-Choice Bioassay. No-choice bioassay arenas were assembled by connecting two Petri dishes with Tygon tubing (inner diameter 3.2 mm, outer diameter 6.4 mm). Petri dishes were washed 4 times in tap water to eliminate static electricity. Tygon tubing was soaked in tap water for 3 hours and allowed to air dry prior to use. One Petri dish (95 mm×15 mm; Fisher Scientific) served as a termite housing chamber and was filled with moist sand (˜45 g). […]

Data set [2] concerns Reticulitermes spp. Description: Diet consumption by individual termites, radioisotope quantification by scintillation counting. The note with it: for feeding preference of individual termites: choice test 14C-hexaflumuron and 3H-inulin. The class given is in vivo. The method, then:
Diet Consumption by Individual Termites. After mortality was recorded for a particular treatment/day, 20 surviving termites were randomly selected from each radioactive treatment arena for isotope analysis. Random selection was not limited to dyed termites. Non-dyed termites were also selected. The termites were thoroughly rinsed with distilled water three times to remove any radioactivity from the outside of the body. They were next placed on paper towels to remove excess water. Each rinsed, dried termite was placed into a separate microcentrifuge tube (1.5 ml; Fisher Brand), and the body was homogenized in 200 μl of distilled water. The homogenate was transferred into a glass scintillation vial (20 ml; Kimble Glass, Vineland, N.J.). Microcentrifuge tubes were rinsed three times with 200 μl of distilled water per rinse. Each rinse was added to the homogenate in the scintillation vial. An aliquot of scintillation cocktail (8 ml; Scintiverse® BD; Fisher Scientific, Fair Lawn, N.J.) was then added to each vial.
The amount of radioactivity contained within each sample was quantified by using a scintillation counter (Beckman Coulter, Inc.™ LS 6500, Fullerton, Calif.). The individual termite samples contained very low dpm counts. Therefore, sample vials containing only a single isotope (from no-choice tests) were counted for 10 minutes. However, sample vials that potentially could contain dual isotopes (from choice-tests) were counted for 20 minutes to improve the accuracy of the counts.
Background Radioactivity Measurements. After termite mortality had been recorded, 2 termites were selected at random from each no-choice, control arena. These termites were rinsed, homogenized, and prepared for scintillation counting as previously described. Control termites were counted in the scintillation counter for 10 minutes to record background radioactivity. Background radioactivity was measured for each treatment group (choice and no-choice) at both 2 d and 5 d. Background measurements also accounted for any quenching that occurred due to the termite body fragments occluding light transmission in the scintillation counter. Before the test data was analyzed, background radioactivity counts for a particular sample was subtracted from the sample's spectral peak (Traniello, J. F. A., R. B. Rosengaus and C. K. Levy, 1985, Single and double isotope labeling of social insect colonies, Entomol. Exp. Appl., 38:87-92; Suarez, M. E. and B. L. Thorne, 2000, Effects of food type and foraging distance on trophallaxis in the subterranean termite Reticulitermes virginicus (Isoptera: Rhinotermitidae), Sociobiology, 35: 487-498).
Radiolabel Counting using Dual Label Technique. Specialized procedures were required for analysis of radiolabeled samples containing both ^14C and ^3H. Due to the potential low/high counts and spillover of ^14C and ^3H in the counting window, a series of dilutions was made from extracted diets (with known amounts of activity) to correct for spillover. The range of activity values for ^14C and ^3H and a combination of the two isotopes within the samples was determined. Spillover correction curves were generated for the range of sample data and used to correct those samples where high levels of both ^14C and ^3H occurred and spillover was evident.
Quantification of radioactive isotopes from individual termite cadavers was used to determine how much a single termite consumed of ^14C-hexaflumuron diet in the presence of a competing food source. Mean consumption of ^14C-hexaflumuron diet in the no-choice test was compare with ^14C-hexaflumuron consumption in the choice test using GLM ANOVA with Least Squares adjustment for multiple comparisons of mean values. For all tests data was analyzed separately for 2 d and 5 d.
Finally, mean consumption of the two radioisotopes, ^14C-hexaflumuron and ^3H-inulin, in the choice tests were compared to determine whether termites preferred one diet over another. […]

The test system of data set [3] is eastern subterranean termites. The note with it: in vivo; cited from earlier work.
Another data set deals with subterranean termites. The note with it: subterranean termites fed hexaflumuron bait; cited from earlier work.
A further data set concerns Reticulitermes sp. Kind of data set: Inulin treated vs untreated paper towel diets placed on yellow pine termite harborages. It counts as in vivo. The note with it: average of 7 d. As to the method: Subterranean termites, Reticulitermes sp. were reared in the laboratory in Nunc dishes containing strips of yellow pine wood as a food resource and termite harborage. Inulin treated and untreated paper towel diets were weighed and then placed side by side on the top of the termite harborages (strips of yellow pine). Termites were allowed to forage for an average of 7 d. After the test period, the diets were removed, weighed and consumption of each towel diet was recorded as a percentage of total consumption of both paper towel diets.

Where [4] appears, read: choice test hexaflumuron and inulin diets, 2 d.
[5] abbreviates: choice test hexaflumuron and inulin diets, 5 d.
[6] abbreviates: choice test 14C-hexaflumuron and 3H-inulin diets, 5 d.
Setting [7] is: choice test hexaflumuron and inulin diets, 5 d, listed as inulin.

Where “and” joins values, the source holds several entries; their conditions need not be identical. Identical values can stand only once. Entries after “also recorded” stand apart in the source; their conditions may differ.

Regarding `O=C(NC(=O)c1c(F)cccc1F)Nc1cc(Cl)c(OC(F)(F)C(F)F)c(Cl)c1` [Hexaflumuron, N-(((3,5-dichloro-4-(1,1,2,2-tetrafluoroethoxy)phenyl)-amino)carbonyl)-2,6-difluorobenzamide], the “Hexaflumuron Consumption (mg) (Mean ± SEM)” value in the data set on Reticulitermes spp. [1] (choice test hexaflumuron and control diet, 2 d) is listed as 1.6 ± 0.9a mg; in the data set with Reticulitermes spp. [1] (choice test hexaflumuron and control diet, 2 d, listed as hexaflumuron), 1.6 mg; in the data set on Reticulitermes spp. [1] (choice test hexaflumuron and control diet, 5 d), 3.2 ± 1.4a mg; in the data set with Reticulitermes spp. [1] (choice test hexaflumuron and control diet, 5 d, listed as hexaflumuron), 3.2 mg; with Reticulitermes spp. [1] (no-choice test, 2 d, groups of 100 termite workers, 0.5% hexaflumuron diet), 3.0 ± 0.7a mg; in the data set on Reticulitermes spp. [1] (no-choice test, 2 d, groups of 100 termite workers, 0.5% hexaflumuron diet, listed as 14C-hexaflumuron), 3 mg. In addition, the “Hexaflumuron Consumption (mg) (Mean ± SEM)” value was determined as 3.0 mg with Reticulitermes spp. [1] (no-choice test, 2 d, groups of 100 termite workers, 0.5% hexaflumuron diet, listed as hexaflumuron); 11.4 ± 3.9a mg in the data set with Reticulitermes spp. [1] (no-choice test, 5 d, groups of 100 termite workers, 0.5% hexaflumuron diet); 11.4 mg in the data set on Reticulitermes spp. [1] (no-choice test, 5 d, groups of 100 termite workers, 0.5% hexaflumuron diet, listed as 14C-hexaflumuron); 11.4 mg in the data set with Reticulitermes spp. [1] (no-choice test, 5 d, groups of 100 termite workers, 0.5% hexaflumuron diet, listed as hexaflumuron). The “Consumption (mg) (Mean ± SEM)” value with Reticulitermes spp. [1] (setting [4]) was 1.0 ± 0.8a mg; with Reticulitermes spp. [1] (choice test hexaflumuron and inulin diets, 2 d, listed as hexaflumuron), 1.0 mg; with Reticulitermes spp. [1] (setting [5]) it was 0.2 ± 0.1b mg and 0.2 ± 0.1 a mg; in the data set on Reticulitermes spp. [1] (choice test hexaflumuron and inulin diets, 5 d, listed as 14C-hexaflumuron), 0.2 mg; with Reticulitermes spp. [1] (choice test hexaflumuron and inulin diets, 5 d, listed as hexaflumuron), 0.2 mg. Also, the “consumption by an individual termite” value in the data set with Reticulitermes spp. [2] (choice test 14C-hexaflumuron and 3H-inulin diets, 2 d) is 7.3 µg; with Reticulitermes spp. [2] (setting [6]) it was 2.3 µg; in the data set on Reticulitermes spp. [2] (choice test competing with control diet, 2 d), 14.5 µg; in the data set with Reticulitermes spp. [2] (choice test in presence of control diet, 5 d), 19.3 µg; in the data set on Reticulitermes spp. [2] (no-choice test, 2 d), 38.9 µg; in the data set on Reticulitermes spp. [2] (no-choice test, 5 d), 56.9 µg. Besides, the “feeding preference of individual termites” value with Reticulitermes spp. [2] (2 d) was “did not prefer either diet”. For the same compound, the “mean half life within the body of a termite” value in data set [3] was around 220 h. For the same compound, the LT50 with subterranean termites was around 26.6 days. The onset of toxicity result in the data set with subterranean termites is listed as “approximately 15 d”.

In the case of inulin, the “Consumption (mg) (Mean ± SEM)” value in the data set on Reticulitermes spp. [1] (setting [4]) was 2.0 ± 0.6 mg; in the data set on Reticulitermes spp. [1] (setting [5]), 6.0 ± 1.3 mg and 6.0 ± 1.3 b mg; in the data set on Reticulitermes spp. [1] (setting [7]) it was 6.0 mg. Further, the “feeding preference of termite populations (consumption significantly greater than 50% of total)” value with Reticulitermes spp. [1] (setting [7]) is reported as “preference for the inulin diet was indicated; also recorded: preference for the inulin treated bait”. In the data set on Reticulitermes spp. [1] (choice test, 5 d, Table B), the “consumption of inulin treated bait relative to Hexaflumuron treated bait” value was found to be 30 times. For the same compound, the “consumption by an individual termite” value with Reticulitermes spp. [2] (setting [6]) came to 19.4 µg. Further, the “feeding preference of individual termites” value is recorded as “did not prefer either diet” in the data set with Reticulitermes spp. [2] (2 d); “significant preference” with Reticulitermes spp. [2] (5 d, listed as 3H-inulin); “significant preference for the inulin treated bait” in the data set with Reticulitermes spp. [2] (5 d, listed as inulin). For the same compound, the “preferential consumption versus untreated towels and yellow pine wood” value in the data set on Reticulitermes sp. was “preferentially consumed inulin treated paper towels over untreated towels and yellow pine wood”. For the same compound, the “Termite Consumption Mean % ± SEM (percentage of total consumption of both paper towel diets)” value in the data set with Reticulitermes sp. (choice, in presence of yellow pine) is reported as 64.7 ± 4.5%.
